`CN(Cc1ccccc1)CN1C(=O)C(=NNC(=O)c2ccccc2OCc2ccccc2)c2ccccc21` showed a solubility (mole fraction) (in PEG-400, 298.15 K) of 0.007, a solubility (mole fraction) (in PEG-400, 303.15 K) of 0.00778 and a solubility (mole fraction) (in PEG-400, 308.15 K) of 0.00883. The solubility (mole fraction) (in PEG-400, 313.15 K) was 0.00988, the solubility (mole fraction) (in PEG-400, 318.15 K) was 0.0113 and the solubility (mole fraction) (in water, 298.15 K) was 1.07e-06. The solubility (mole fraction) (in water, 303.15 K) was 1.48e-06, the solubility (mole fraction) (in water, 308.15 K) was 1.89e-06 and the solubility (mole fraction) (in water, 313.15 K) was 2.39e-06. The solubility (mole fraction) (in water, 318.15 K) was 2.97e-06.

— BigSolDB 2.1
